Literature values, collected in patent US20110052648A1, “ORAL MODIFIED-RELEASE FORMULATIONS CONTAINING THIAZEPINES” (priority 2008, published 2011).

- solubility in water: moderately soluble
Structure (SMILES): OCCOCCN1CCN(C2=Nc3ccccc3Sc3ccccc32)CC1 [Quetiapine, 11-[4-[2-(2-hydroxyethoxy)ethyl]-1-piperazinyl]dibenzo[b,f][1,4]-thiazepine]
